Measurements taken from patent EP1283052A1, “Pharmaceutical composition containing caspase-8 and /or caspase-9 useful for overcoming glucocorticoid- and cancer therapy-induced apoptosis of tumours” (Deutsches Krebsforschungszentrum Stiftung des öffentlichen …, priority 2001, dated 2003).

System: caspase-9 and caspase-3
Assay: Caspase-9 and caspase-3 protein expression in P5 cells (immunofluorescence, Western blot)
Type: cell-based, human
Settings: Fig. 4c
Experimental: P5 cells either untreated (CO) or stimulated with cisplatin (CIS, 2 µg/ml) were incubated in the absence or presence of DEX (1 µM). • (a) 6 and 24 h later RNA was extracted and assayed by RT-PCR for expression of caspase-9. Expression of the GAPDH gene served as control for equal conditions. • (b) 24 h after stimulation expression of caspase-9 proteins was examined by immunofluorescence staining using a rabbit polyclonal caspase-9 antibody and a FITC-coupled secondary antibody. Staining with the secondary antibody alone served as control for unspecific binding. • (c) 48 and 72 h after treatment whole cell proteins were extracted and analysed for expression of caspase-9 and caspase-3. The protein sizes in kDa are indicated on the right. […]
• (A) Cell culture. […] The mice were given 0.28 mg/L DEX in drinking water, and the amount of water consumed was monitored. […] The tumour volumes were measured using callipers, and calculated using, as an approximation, the formula for volume of a hemi-ellipsoid: π(width^2 x length)/6. […] Early apoptotic changes were identified by staining of cells with fluoresceinthiocyanate (FITC)-conjugated annexin V and propidium iodide (Becton Dickinson, Heidelberg, Germany) and analysed by flow cytometry (FACScan, Becton Dickinson) as described (Herr et al., EMBO J. 16 (1997), 6200-6208) • (E) Immunohistochemistry. […]

Q: What does the source list for `N.N.[Cl][Pt][Cl]` [cisplatin]?
A: protein levels of procaspase-9 (Western blot at 48 and 72 h): reduced the protein levels of procaspase-9; procaspase-3 cleavage (cisplatin alone, 48 and 72 h): cleaved 48 and 72 h following cisplatin
